# Assay results published in patent publication US20140303092A1 (CHIMERIX, INC., priority 2011, published 2014).
# Marks after values point to notes of the source that are not given here.
# Experiments:
# [1] = design: species or system human; conditions: in vivo
# Source text: Plasma samples were collected during the study to assess weekly trough concentrations of HDP-CDV and CDV. […] There was no evidence for increasing weekly trough CDV plasma concentrations; therefore, plasma concentrations are not presented in this document.
# [2] = cynomolgus monkey, in vivo
# CMV = assay: Study HDP-CDV-350: virologic response of refractory CMV infection in HCT recipients; assay type: in vivo, human (allogeneic HCT recipients); conditions: for Proportion of subjects with ≧1 log10 last on-treatment reduction or last on-treatment reduction to ≦ LLOQ / Proportion of subjects with ≧1 log10 postbaseline reduction in CMV DNAemia or postbaseline reduction to ≦ LLOQ: LLOQ 100 copies/mL
# Experimental: The virologic responses of 16 allogeneic HCT recipients enrolled and treated with HDP-CDV due to refractory CMV infection or disease and/or intolerance to available anti-CMV medications were evaluated.
# All subjects completed a screening assessment (including obtaining written informed consent and, where applicable, assent) prior to initiating treatment with HDP-CDV.
# HDP-CDV was given orally twice weekly (BIW); 100 mg BIW for adults or 2 mg/kg BIW for pediatrics. […] Eligible subjects received either a weight-based or fixed dose of HDP-CDV. Pediatric subjects (≦12 years old) received a 4 mg/kg total weekly dose (not-to-exceed 200 mg), as either 2 mg/kg twice-weekly (BIW) or 4 mg/kg once-weekly (QW). Adults and adolescent (13-17 years old) subjects received a 200 mg (not to exceed 4 mg/kg) total weekly dose, as either 100 mg BIW or 200 mg QW. BIW doses were administered at alternating 3- and 4-day intervals and QW doses on the same day each week.
# Subjects were treated for an initial period of up to 3 months until either resolution or stabilization of their clinical disease or for 4 weeks following resolution of viral DNAemia, depending on the disease under treatment, whichever was longer. Treatment is extended for up to an additional 3 months, for a total duration of 6 months treatment, depending on the subject's clinical response.
# (§1) Subjects underwent extensive safety monitoring, including routine safety laboratory assessments, physical examination, and vital sign measurements at regular intervals. In addition, subjects were monitored for viral DNA burden in plasma (DNAemia) and other affected compartments (e.g., urine, stool, CSF, etc.). Assessments were performed weekly for the first month, every 1 or 2 weeks for the next 2 months, and monthly thereafter for as long as treatment was continued. Subjects were monitored for adverse events (AEs) and for selected concomitant medication throughout the entire study, including the 1 month posttreatment follow-up period.
# [3] = Study HDP-CDV-350: safety, adverse events and disposition; assay type: in vivo, human (allogeneic HCT recipients)
# Experimental: as §1
# Given that subjects had to have a serious or life-threatening disease and/or to have failed other available treatment options in order to qualify for this study, there was an expected high frequency of AEs in the study population overall. With the exception of diarrhea, with or without associated GI signs and symptoms, the vast majority of AEs were attributed to the underlying conditions of the subjects and not to HDP-CDV administration.
# [4] = 16 subjects, 100 mg BIW adults or 2 mg/kg BIW pediatrics
structure (smiles),measurement,setting,value
CCCCCCCCCCCCCCCCOCCCOP(=O)(O)COC(CO)Cn1ccc(N)nc1=O (stereo not shown) [HDP-CDV],weekly trough HDP-CDV concentrations,[1],near or below the lower limit of quantification
same,ALT change,[2],dose-related increases in ALT which were quickly reversible after cessation of dosing
same,"Maximal reduction in CMV VL from BL, mean (range)","CMV; 16 HCT recipients, 100 mg BIW adults or 2 mg/kg BIW pediatrics",1.13 (−0.30-2.60) log10
same,Mean last on-treatment change from baseline CMV DNAemia,"CMV; 16 subjects, qPCR plasma",−0.63 log10 copies/mL
same,Mean maximal postbaseline change in CMV DNAemia,"CMV; 16 subjects, qPCR plasma",−1.13 log10 copies/mL
same,"Change from Baseline CMV DNAemia, Mean","CMV; +1 Month Posttreatment, N 8",−1.00 log10 copies/mL
same,"Change from Baseline CMV DNAemia, Mean","CMV; +1 Week Posttreatment, N 9",−0.63 log10 copies/mL
same,Proportion of subjects with ≧1 log10 last on-treatment reduction or last on-treatment reduction to ≦ LLOQ,CMV,(62.5%)
same,Proportion of subjects with ≧1 log10 postbaseline reduction in CMV DNAemia or postbaseline reduction to ≦ LLOQ,CMV,(81.3%)
same,"Change from Baseline CMV DNAemia, Mean","CMV; Month 3, N 7",+0.16 log10 copies/mL
same,"Change from Baseline CMV DNAemia, Mean","CMV; Month 4, N 4",−0.89 log10 copies/mL
same,"Change from Baseline CMV DNAemia, Mean","CMV; Month 5, N 3",−0.84 log10 copies/mL
same,"Change from Baseline CMV DNAemia, Mean","CMV; Month 6, N 3",−0.80 log10 copies/mL
same,subjects with >1 log10 reduction or ≦LOQ (2 log10) during tx,CMV; Thirteen of 16 subjects,81%
same,"Change from Baseline CMV DNAemia, Mean","CMV; Week 2, N 16",−0.22 log10 copies/mL
same,"Change from Baseline CMV DNAemia, Mean","CMV; Week 3, N 15",−0.30 log10 copies/mL
same,"Change from Baseline CMV DNAemia, Mean","CMV; Week 4, N 15",−0.52 log10 copies/mL
same,"Change from Baseline CMV DNAemia, Mean","CMV; Week 5, N 14",−0.63 log10 copies/mL
same,"Change from Baseline CMV DNAemia, Mean","CMV; Week 6, N 6",−0.66 log10 copies/mL
same,"Change from Baseline CMV DNAemia, Mean","CMV; Week 7, N 10",−0.16 log10 copies/mL
same,"Change from Baseline CMV DNAemia, Mean","CMV; Week 8, N 3",+0.22 log10 copies/mL
same,"Change from Baseline CMV DNAemia, Mean","CMV; Week 9, N 8",−0.02 log10 copies/mL
same,"Change from Baseline CMV DNAemia, Mean","CMV; Week 10, N 2",+0.11 log10 copies/mL
same,"Change from Baseline CMV DNAemia, Mean","CMV; Week 11, N 9",+0.06 log10 copies/mL
same,Proportion of subjects with ≧1 log10 last on-treatment reduction or last on-treatment reduction to ≦ LLOQ,CMV; subjects/N,10/16
same,Proportion of subjects with ≧1 log10 postbaseline reduction in CMV DNAemia or postbaseline reduction to ≦ LLOQ,CMV; subjects/N,13/16
same,Reason for Premature Study Discontinuation: Death,[3]; [4],7 (44%)
same,Reasons for Premature HDP-CDV Treatment Discontinuation: Death,[3]; [4],4 (25%)
same,Reasons for Premature HDP-CDV Treatment Discontinuation: Other,"[3]; 16 subjects, both completed the maximum 6 months treatment without resolution of CMV infection",2 (13%)^i
same,Treatment-related Adverse Events: Colitis,"[3]; human, in vivo",1 (6%) No. of Subjects (%)
same,Treatment-related Adverse Events: Decreased appetite,"[3]; human, in vivo",1 (6%) No. of Subjects (%)
same,Treatment-related Adverse Events: Diarrhea,"[3]; human, in vivo",12 (75%) No. of Subjects (%)
same,Treatment-related Adverse Events: Flatulence,"[3]; human, in vivo",1 (6%) No. of Subjects (%)
same,Treatment-related Adverse Events: Liver function tests abnormal,"[3]; human, in vivo",3 (19%) No. of Subjects (%)
same,Treatment-related Adverse Events: Nausea,"[3]; human, in vivo",2 (13%) No. of Subjects (%)
same,Treatment-related Adverse Events: Neutropenia,"[3]; human, in vivo",1 (6%) No. of Subjects (%)
same,tolerability,[3]; in vivo,generally well-tolerated
